Experimental findings from ChEMBL document CHEMBL1201862, “PubChem BioAssay data set” (2004) are described below.

Activity calls are given as the source filed them.

Holding throughout (assay type): functional
Assay [1] relates to CHO-K1. Briefly: Counterscreen for antagonists of the orexin 1 receptor (OX1R; HCRTR1): Homogeneous time resolved fluorescence (HTRF)-based cell-based dose response assay to identify antagonists of the parental CHO-K1 cell line. [Related pubchem assays (depositor defined):AID434989, AID435008, AID463079, AID485270, AID492963, AID492964, AID492965, AID493232, AID504699, AID504701]. The conditions noted are these: Cricetulus griseus. For orientation: Counterscreens check selectivity or assay interference.

The nature of assay [2]: Counterscreen for antagonists of the orexin 1 receptor (OX1R; HCRTR1): Fluorescence-based cell-based high throughput dose response assay to identify antagonists of the parental CHO cell line. [Related pubchem assays (depositor defined):AID434989, AID435008, AID463079, AID485270, AID492963, AID492964, AID492965, AID493232, AID504699, AID504701].
Assay [3] has as its target T1, Orexin/Hypocretin receptor type 1 (Homo sapiens, UniProt O43613).
T1 sequence (O43613 whole entry): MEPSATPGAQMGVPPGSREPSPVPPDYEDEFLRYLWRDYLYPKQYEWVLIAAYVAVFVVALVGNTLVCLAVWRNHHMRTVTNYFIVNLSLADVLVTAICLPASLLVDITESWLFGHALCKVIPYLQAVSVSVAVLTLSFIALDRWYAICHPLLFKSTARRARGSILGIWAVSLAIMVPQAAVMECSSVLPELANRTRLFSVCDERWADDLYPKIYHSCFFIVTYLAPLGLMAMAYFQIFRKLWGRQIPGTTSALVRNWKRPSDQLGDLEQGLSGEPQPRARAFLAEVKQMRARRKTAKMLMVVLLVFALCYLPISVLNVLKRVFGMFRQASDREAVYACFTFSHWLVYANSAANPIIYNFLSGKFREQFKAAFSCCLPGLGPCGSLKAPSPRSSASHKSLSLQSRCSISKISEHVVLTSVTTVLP
Put plainly: Homogeneous Time Resolved Fluorescence (HTRF)-based cell-based high throughput dose response assay for antagonists of the orexin 1 receptor (OX1R; HCRTR1). [Related pubchem assays (depositor defined):AID434989, AID435008, AID463079, AID485270, AID492963, AID492964, AID492965, AID493232, AID504717, AID504718]. A general note: TR-FRET usually uses a lanthanide donor and a delayed reading to cut background.

Assay [4] has as its target T1, Orexin/Hypocretin receptor type 1. Put plainly: Fluorescence-based cell-based high throughput dose response assay for antagonists of the orexin 1 receptor (OX1R; HCRTR1). [Related pubchem assays (depositor defined):AID434989, AID435008, AID463079, AID485270, AID492963, AID492964, AID492965, AID493232, AID504717, AID504718].
Assay [5] deals with T2, Orexin receptor type 2 (Homo sapiens, UniProt O43614).
T2 sequence (O43614 whole entry): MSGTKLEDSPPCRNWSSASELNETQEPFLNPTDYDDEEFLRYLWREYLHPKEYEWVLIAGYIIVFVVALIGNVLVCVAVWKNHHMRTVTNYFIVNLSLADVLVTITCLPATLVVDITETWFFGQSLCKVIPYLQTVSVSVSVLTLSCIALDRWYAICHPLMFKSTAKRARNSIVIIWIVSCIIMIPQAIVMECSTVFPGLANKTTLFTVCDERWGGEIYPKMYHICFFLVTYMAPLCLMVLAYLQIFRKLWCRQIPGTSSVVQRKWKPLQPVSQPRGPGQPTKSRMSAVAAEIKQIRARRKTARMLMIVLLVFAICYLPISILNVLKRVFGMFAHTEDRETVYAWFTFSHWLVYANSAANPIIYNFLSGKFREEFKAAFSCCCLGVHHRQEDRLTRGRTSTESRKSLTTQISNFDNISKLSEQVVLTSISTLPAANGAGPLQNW
Put plainly: Counterscreen assay for antagonists of the orexin 1 receptor (OX1R; HCRTR1): Fluorescence-based cell-based dose response assay for antagonists of the orexin 2 receptor (OX2R; HCRTR2), run by assay provider.

Assay [6] concerns the target T2, Orexin receptor type 2. Briefly: Counterscreen assay for antagonists of the orexin 1 receptor (OX1R; HCRTR1): Homogeneous Time Resolved Fluorescence (HTRF)-based cell-based dose response assay for antagonists of the orexin 2 receptor (OX2R; HCRTR2), run by assay provider.
For assay [7], the target named is Melanin-concentrating hormone receptor 1 (Homo sapiens, UniProt Q99705). Put plainly: Late-stage fluorescence-based counterscreen for antagonists of the G-protein coupled receptor 7 (GPR7): cell-based dose response assay to identify antagonists of the melanin-concentrating hormone receptor 1 (MCHR1) Set 6.
Assay [8] addresses T3, Neuropeptides B/W receptor type 1 (Homo sapiens, UniProt P48145).
T3 sequence (P48145 whole entry): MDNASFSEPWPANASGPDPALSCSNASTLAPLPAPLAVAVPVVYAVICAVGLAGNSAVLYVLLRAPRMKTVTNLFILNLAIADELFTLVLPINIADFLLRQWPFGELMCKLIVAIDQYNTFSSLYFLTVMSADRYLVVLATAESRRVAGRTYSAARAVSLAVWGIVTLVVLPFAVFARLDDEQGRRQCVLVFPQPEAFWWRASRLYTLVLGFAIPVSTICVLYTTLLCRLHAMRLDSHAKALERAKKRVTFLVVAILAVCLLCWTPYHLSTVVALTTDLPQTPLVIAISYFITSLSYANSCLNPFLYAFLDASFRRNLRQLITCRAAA
Briefly: human NPBW1 receptor blockade, IC50 – cell-based, fluorescence, dose response, set 6, late-stage follow-up (AID 588583).

For assay [9], the target named is T4, Caspase-3 (Homo sapiens, UniProt P42574).
T4 sequence (P42574 whole entry): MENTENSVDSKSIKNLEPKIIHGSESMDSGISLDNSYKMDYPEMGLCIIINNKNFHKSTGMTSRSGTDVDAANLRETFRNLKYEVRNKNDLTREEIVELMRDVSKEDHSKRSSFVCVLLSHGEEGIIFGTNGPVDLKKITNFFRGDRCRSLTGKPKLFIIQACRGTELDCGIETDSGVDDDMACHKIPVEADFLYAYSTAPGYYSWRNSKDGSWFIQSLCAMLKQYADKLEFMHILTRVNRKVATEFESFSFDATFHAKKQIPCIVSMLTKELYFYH
Put plainly: inhibition of recombinant caspase-3 activity – biochemical, luminescence, set 2, selectivity assay for SENP protease inhibitor project, SAR follow-up (AID 588599).

The target in assay [10] is T5, Sentrin-specific protease 8 (Homo sapiens, UniProt Q96LD8).
T5 sequence (Q96LD8 whole entry): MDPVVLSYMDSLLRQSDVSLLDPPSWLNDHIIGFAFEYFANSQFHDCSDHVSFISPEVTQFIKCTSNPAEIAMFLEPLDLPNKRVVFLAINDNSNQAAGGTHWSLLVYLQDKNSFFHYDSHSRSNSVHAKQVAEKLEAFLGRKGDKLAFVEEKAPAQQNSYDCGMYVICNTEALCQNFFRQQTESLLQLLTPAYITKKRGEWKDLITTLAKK
Briefly: inhibition of sentrin protease 8 – biochemical, luminescence, set 2, SAR follow-up (AID 588601).

Assay [11] deals with T6, Sentrin-specific protease 7 (Homo sapiens, UniProt Q9BQF6).
T6 sequence (Q9BQF6 whole entry): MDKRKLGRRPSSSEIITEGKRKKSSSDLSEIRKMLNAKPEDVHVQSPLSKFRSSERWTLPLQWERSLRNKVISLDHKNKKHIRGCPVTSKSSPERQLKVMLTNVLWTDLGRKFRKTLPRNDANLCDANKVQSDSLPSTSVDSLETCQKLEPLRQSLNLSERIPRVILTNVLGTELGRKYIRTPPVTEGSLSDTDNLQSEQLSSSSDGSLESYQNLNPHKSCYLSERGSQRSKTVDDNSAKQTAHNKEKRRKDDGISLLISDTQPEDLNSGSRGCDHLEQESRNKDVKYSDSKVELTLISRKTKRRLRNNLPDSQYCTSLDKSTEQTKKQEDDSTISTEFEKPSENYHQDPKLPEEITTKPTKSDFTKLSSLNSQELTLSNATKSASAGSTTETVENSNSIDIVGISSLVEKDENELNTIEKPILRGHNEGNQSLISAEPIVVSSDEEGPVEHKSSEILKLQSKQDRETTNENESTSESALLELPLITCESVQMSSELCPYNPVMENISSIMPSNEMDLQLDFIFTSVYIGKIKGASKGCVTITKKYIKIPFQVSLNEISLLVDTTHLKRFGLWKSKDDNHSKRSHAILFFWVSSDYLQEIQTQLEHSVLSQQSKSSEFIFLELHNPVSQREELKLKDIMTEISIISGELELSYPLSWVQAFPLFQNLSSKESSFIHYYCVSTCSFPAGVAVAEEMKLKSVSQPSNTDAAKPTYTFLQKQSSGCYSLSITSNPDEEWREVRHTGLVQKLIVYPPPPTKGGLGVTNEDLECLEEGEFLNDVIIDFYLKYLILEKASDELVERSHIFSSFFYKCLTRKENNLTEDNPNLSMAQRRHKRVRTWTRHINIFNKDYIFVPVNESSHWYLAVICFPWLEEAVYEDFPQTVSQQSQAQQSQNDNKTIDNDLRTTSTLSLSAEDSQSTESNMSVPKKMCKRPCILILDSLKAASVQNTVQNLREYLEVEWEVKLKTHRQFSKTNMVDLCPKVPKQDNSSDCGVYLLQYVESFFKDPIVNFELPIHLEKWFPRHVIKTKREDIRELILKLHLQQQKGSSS
Put plainly: inhibition of human SENP7 cleavage activity – biochemical, luminescence, set 2, SAR follow-up (AID 588600).

Assay [12] concerns the target T7, Sentrin-specific protease 6 (Homo sapiens, UniProt Q9GZR1).
T7 sequence (Q9GZR1 whole entry): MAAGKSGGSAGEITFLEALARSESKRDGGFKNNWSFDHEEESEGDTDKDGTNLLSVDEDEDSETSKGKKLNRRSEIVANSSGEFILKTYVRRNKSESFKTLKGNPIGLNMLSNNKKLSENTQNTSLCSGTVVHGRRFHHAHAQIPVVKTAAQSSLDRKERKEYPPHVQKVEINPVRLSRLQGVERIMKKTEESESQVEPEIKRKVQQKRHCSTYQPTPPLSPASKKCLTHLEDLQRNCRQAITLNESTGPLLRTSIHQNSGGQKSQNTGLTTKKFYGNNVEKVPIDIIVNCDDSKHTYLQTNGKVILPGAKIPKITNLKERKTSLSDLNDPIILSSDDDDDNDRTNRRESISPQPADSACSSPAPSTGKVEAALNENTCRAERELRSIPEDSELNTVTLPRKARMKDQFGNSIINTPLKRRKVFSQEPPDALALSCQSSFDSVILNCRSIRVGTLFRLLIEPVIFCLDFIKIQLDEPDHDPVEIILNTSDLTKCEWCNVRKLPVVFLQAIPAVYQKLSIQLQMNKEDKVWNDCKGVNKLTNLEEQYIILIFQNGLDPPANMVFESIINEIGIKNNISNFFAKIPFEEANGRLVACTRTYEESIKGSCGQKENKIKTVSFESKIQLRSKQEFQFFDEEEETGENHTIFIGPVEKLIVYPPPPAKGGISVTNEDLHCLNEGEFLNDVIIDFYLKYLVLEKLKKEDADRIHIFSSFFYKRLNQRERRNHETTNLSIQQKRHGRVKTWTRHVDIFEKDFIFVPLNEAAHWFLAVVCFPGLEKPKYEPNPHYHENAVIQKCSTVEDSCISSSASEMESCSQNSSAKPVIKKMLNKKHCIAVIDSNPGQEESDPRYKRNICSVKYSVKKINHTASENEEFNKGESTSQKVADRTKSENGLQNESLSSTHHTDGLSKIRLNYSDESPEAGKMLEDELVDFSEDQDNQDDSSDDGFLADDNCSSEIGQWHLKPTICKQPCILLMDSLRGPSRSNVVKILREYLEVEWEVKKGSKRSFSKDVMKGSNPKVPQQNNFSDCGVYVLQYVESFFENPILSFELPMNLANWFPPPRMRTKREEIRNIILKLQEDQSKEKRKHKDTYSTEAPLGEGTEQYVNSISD
Put plainly: inhibition of human SENP6 catalytic domain – biochemical, luminescence, set 2, SAR follow-up (AID 588598).

For assay [13], the target named is DNA (cytosine-5)-methyltransferase 1 (Homo sapiens, UniProt P26358). Briefly: inhibition of DNA methylation by DNMT1 – biochemical, fluorescent molecular beacon, confirmation (AID 602386).
The target in assay [14] is Mitochondrial peptide methionine sulfoxide reductase (Bos taurus, UniProt P54149). Briefly: Absorbance-based biochemical high throughput dose response assay for activators of Methionine sulfoxide reductase A (MsrA).
In assay [15] the target is Aurora kinase A (Homo sapiens, UniProt O14965).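 Note: value from the Navigating the Kinome kinase panel profiling, panel entry STK6.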
The target of assay [16] is Aurora kinase B (Homo sapiens, UniProt Q96GD4).
Sequence of Aurora kinase B (Q96GD4 whole entry): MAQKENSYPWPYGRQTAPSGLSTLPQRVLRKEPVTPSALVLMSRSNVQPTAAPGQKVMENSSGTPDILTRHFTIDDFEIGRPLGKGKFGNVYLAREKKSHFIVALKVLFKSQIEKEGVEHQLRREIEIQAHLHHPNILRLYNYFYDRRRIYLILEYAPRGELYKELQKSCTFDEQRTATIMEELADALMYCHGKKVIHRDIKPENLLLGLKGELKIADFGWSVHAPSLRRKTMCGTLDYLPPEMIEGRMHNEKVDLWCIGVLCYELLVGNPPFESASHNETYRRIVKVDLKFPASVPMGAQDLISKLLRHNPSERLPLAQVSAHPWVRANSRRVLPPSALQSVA

Sequence of Melanin-concentrating hormone receptor 1 (Q99705 whole entry): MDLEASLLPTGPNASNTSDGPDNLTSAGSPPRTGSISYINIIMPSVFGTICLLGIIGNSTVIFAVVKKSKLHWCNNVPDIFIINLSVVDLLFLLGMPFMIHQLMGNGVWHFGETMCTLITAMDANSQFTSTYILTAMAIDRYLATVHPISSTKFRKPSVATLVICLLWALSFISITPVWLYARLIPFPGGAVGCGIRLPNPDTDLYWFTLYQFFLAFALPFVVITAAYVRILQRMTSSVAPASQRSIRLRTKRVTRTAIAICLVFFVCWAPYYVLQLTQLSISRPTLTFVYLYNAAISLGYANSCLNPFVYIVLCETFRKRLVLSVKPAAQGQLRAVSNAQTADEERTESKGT
Sequence of Aurora kinase A (O14965 whole entry): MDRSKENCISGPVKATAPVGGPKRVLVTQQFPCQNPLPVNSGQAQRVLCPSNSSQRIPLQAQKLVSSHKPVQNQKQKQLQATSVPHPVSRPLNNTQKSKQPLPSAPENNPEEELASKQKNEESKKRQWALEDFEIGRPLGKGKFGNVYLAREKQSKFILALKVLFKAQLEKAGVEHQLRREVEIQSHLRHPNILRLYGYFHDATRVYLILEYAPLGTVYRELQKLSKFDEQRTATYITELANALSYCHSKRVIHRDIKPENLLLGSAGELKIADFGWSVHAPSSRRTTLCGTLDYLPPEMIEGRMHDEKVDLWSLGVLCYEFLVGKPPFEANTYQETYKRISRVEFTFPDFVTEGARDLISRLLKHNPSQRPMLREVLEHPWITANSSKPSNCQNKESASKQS
Sequence of Mitochondrial peptide methionine sulfoxide reductase (P54149 whole entry): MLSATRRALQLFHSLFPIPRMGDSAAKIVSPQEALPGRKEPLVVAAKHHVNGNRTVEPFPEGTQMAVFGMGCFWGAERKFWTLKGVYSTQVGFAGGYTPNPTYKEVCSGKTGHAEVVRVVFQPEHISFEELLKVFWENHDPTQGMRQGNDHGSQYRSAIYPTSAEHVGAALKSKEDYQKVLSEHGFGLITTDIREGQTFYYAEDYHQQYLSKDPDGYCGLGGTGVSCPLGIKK
Sequence of DNA (cytosine-5)-methyltransferase 1 (P26358 whole entry): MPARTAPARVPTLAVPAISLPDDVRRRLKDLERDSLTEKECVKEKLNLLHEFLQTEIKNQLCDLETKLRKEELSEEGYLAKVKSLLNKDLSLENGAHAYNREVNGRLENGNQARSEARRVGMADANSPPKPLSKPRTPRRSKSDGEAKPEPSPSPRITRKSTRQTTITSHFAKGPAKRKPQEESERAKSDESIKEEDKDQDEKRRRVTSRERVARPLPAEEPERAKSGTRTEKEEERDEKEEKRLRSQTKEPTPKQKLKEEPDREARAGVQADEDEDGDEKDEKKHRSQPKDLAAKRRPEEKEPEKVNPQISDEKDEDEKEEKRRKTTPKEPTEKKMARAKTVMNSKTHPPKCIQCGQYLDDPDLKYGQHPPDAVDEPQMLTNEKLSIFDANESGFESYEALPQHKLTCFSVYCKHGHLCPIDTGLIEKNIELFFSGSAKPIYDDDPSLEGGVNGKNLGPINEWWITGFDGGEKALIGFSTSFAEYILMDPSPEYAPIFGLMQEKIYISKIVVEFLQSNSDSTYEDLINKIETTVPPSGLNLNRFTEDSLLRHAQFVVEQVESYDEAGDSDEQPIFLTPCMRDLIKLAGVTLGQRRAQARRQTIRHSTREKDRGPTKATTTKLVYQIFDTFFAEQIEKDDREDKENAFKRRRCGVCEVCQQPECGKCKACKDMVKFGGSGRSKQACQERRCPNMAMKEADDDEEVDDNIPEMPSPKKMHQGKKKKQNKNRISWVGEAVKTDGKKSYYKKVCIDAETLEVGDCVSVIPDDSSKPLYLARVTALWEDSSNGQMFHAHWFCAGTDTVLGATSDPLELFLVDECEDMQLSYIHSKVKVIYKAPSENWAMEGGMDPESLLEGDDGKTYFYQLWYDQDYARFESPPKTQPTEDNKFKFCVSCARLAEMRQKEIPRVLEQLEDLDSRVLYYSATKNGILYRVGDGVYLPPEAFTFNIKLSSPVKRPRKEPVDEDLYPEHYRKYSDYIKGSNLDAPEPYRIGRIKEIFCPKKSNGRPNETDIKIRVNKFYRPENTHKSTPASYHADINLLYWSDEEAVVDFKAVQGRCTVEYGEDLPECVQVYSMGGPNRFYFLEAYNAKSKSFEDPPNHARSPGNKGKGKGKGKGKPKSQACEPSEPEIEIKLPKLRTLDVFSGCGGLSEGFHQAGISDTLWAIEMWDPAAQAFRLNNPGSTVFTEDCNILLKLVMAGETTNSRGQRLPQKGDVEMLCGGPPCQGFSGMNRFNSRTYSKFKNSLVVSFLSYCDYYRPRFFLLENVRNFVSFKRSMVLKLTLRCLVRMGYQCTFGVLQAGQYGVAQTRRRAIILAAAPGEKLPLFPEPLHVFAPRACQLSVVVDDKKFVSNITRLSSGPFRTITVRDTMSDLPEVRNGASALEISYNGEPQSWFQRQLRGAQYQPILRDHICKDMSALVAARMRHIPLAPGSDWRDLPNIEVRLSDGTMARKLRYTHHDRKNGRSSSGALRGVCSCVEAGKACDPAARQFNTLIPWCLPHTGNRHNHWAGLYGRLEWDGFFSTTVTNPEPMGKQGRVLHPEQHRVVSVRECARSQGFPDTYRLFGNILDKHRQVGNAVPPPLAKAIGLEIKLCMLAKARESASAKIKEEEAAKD

As a reminder, the IC50 is the point on the concentration scale where inhibition reaches its midpoint. For `COc1ccc(-c2cc3nc(-c4ccccc4)cc(N4CCC5(CC4)OCCO5)n3n2)cc1`, the IC50 in assay [1] is > 66.2 µM (inactive); in assay [2], > 49.8 µM (inactive); in [3] it was 5.7 µM (active); in [4], 23.6 µM (inactive); in [5], 10.8 µM (inactive); in [6] it was > 50 µM (inactive).
As for `Cc1ccccc1Cn1ncc(Cl)c(C(C#N)c2ccccc2)c1=O` (configuration not stated), the IC50 in [7] and in assay [8] was 0.484 µM (active) throughout.
`CC1CN(C(=O)C(=O)c2c[nH]c3ccccc23)CC(C)O1` (configuration not stated): the IC50 in assay [9], in assay [10], in assay [11] and in assay [12] was > 99 µM (inactive) each time.
`COCc1c(C(=O)Nc2nc3ccc(C)cc3s2)sc2cccc(F)c12`: the IC50 in assay [9], in [10], in [11] and in [12] was > 99 µM (inactive) each time.
The term EC50 denotes the concentration needed to bring the measured effect to its halfway point. On to `O=C1C(=O)c2c(ccc3ccccc23)-c2ccccc21`, for which the IC50 in [13] was 1.34 µM (active). In addition, the EC50 in assay [14] was > 104 µM (inactive).
On to `N#CC(c1ccc(Cl)cc1F)c1c(Cl)cnn(Cc2cccc3ccccc23)c1=O` (configuration not stated), for which the IC50 in assay [7] and in assay [8] was 0.594 µM (active) each time.
In general, Ki refers to the dissociation constant of the complex between target and ligand, obtained from inhibition or displacement. With `Cc1oc2ncnc(N)c2c1-c1ccc(NC(=O)Nc2cc(C(F)(F)F)ccc2F)cc1`, the inhibition constant (Ki) in assay [15] was 0.126 µM (active); in assay [16] it was 0.00794 µM (active).
